26 molecules from paper PMC3351444, “Molecular Evolution of a Peptide GPCR Ligand Driven by Artificial Neural Networks” (PLoS ONE, 2012) can be followed below.

Series [1] can be described thus: In vitro peptide stability in human serum (RP-HPLC). The conditions noted are these: for half-life at 50 µg/mL / half-life: human; for half-life at 50 µg/mL: human serum, 25% (v/v) in RPMI; for half-life: serum.
The target of another series is T1, human CMKLR1 (Homo sapiens, UniProt Q99788).
T1 construct: host or cells: HEK293A (Invitrogen), stably expressing human Gα15
T1 sequence (Q99788 1-373): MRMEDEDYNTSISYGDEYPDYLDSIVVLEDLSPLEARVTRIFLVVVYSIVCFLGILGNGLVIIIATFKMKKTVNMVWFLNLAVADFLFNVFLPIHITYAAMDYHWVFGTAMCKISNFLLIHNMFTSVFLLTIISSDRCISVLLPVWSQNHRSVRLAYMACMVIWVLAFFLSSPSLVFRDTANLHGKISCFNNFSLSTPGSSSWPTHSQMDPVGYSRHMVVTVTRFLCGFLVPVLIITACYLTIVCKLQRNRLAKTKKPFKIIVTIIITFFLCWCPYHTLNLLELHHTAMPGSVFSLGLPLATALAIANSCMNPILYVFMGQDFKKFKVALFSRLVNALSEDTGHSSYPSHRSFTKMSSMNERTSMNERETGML
Description: Ca2+ mobilization (CellLux imaging) agonist assay in HEK293A cells expressing CMKLR1 and Gα15. It counts as cell-based. Here is the method:
HEK293A cells (Invitrogen) expressing CMKLR1 and Gα15 were seeded at 5*10^4 cells/well in a poly-D-lysine coated 96-well black well/clear bottom plate (BD Falcon) and cultured overnight. From eighteen to twenty-four hours later, cells were loaded with FLUO4-AM (Invitrogen). Then the cells were washed two times with C1 solution (130 mM NaCl, 5 mM KCl, 10 mM HEPES pH 7.4, 2 mM CaCl2, and 10 mM Glucose). After the final wash, a 100 µL of residual volume remained on the cells. Peptides were dissolved in 10% DMSO to a concentration of 1 mM and were diluted in C1 solution with 0.1 % BSA. They were aliquoted as 2x solutions in 96-well plates and were simultaneously transferred by the robotic system within the imager from the ligand plate to the cell plate. […] Fluorescence data was generated in duplicate and experiments were repeated for at least three times. […] For the calculation of concentration-response curves, signals of two wells receiving the same concentration of test substances were averaged and the fluorescence changes of corresponding buffer C1 wells were subtracted. Signals were normalized to background fluorescence. For the calculation of EC50 values, plots of amplitude versus concentrations were prepared in SigmaPlot 11.
For orientation: Calcium flux is commonly read through the fluorescence of an indicator in the cells.

Where [2] appears, read: Ca2+ mobilization, CMKLR1, decimal comma.
Setting [3] is: Ca2+ mobilization, CMKLR1, decimal comma, NR where no EC50 is given, read-out: EC50.

Like-named read-outs stand apart in the source and are kept apart here. Square brackets hold non-standard residues; d marks the D form. Ends that are not written are not given here. Peptide text beside a SMILES is read from it.

As a reminder, the half-life is the time needed for the level to fall by half in the phase considered. One may read the EC50 as the midpoint of the concentration-response curve. Molecule `C[C@H](NC(=O)CN)C(=O)N[C@@H](Cc1ccccc1)C(=O)N[C@@H](CCC(N)=O)C(=O)N[C@@H](Cc1ccccc1)C(=O)N[C@H](CO)C(=O)N[C@@H](C)C(=O)N[C@@H](Cc1ccccc1)C(=O)N[C@H](CO)C(=O)O` [compound 100] (H-GAFQF[dS]AF[dS]-OH; N-terminus assumed) registered a half-life at 50 µg/mL in series [1] of 71 min. For the same molecule, the max response at human CMKLR1 (setting [2]) is on record as 1,69 DF/F0. At human CMKLR1 (setting [3]), the EC50 was found to be 129 nM.
The molecule `CC(C)C[C@H](NC(=O)[C@@H](N)Cc1ccc(O)cc1)C(=O)N1CCC[C@H]1C(=O)N[C@H](C)C(=O)N[C@@H](CCC(N)=O)C(=O)N[C@@H](Cc1ccc(O)cc1)C(=O)N[C@@H](C)C(=O)N[C@@H](Cc1ccccc1)C(=O)N[C@H](CO)C(=O)O` [compound 124] (H-YLP[dA]QYAF[dS]-OH; N-terminus assumed) had a t1/2 in series [1] (metabolic stability in human serum) of 110 min. Further, at human CMKLR1 (setting [2]), the max response is 1,75 DF/F0.
In the case of `CC(C)C[C@H](NC(=O)[C@@H](N)Cc1ccc(O)cc1)C(=O)N1CCC[C@H]1C(=O)NCC(=O)N[C@@H](CCC(N)=O)C(=O)N[C@@H](Cc1ccccc1)C(=O)N[C@H](Cc1ccc(O)cc1)C(=O)N[C@@H](Cc1ccccc1)C(=O)N[C@@H](CO)C(=O)O` [compound 57] (H-YLPGQF[dY]FS-OH; N-terminus assumed), the half-life at 50 µg/mL in series [1] was 26 min. Besides, the max response on human CMKLR1 (setting [2]) is 0,89 DF/F0. Moreover, the 50% effective concentration (EC50) on human CMKLR1 (setting [3]) was 119 nM.
Take `CC(C)C[C@H](NC(=O)[C@H](N)Cc1ccc(O)cc1)C(=O)N1CCC[C@H]1C(=O)NCC(=O)N[C@@H](CCC(N)=O)C(=O)N[C@@H](Cc1ccc(O)cc1)C(=O)N[C@@H](C)C(=O)N[C@@H](Cc1ccccc1)C(=O)N[C@@H](Cc1ccccc1)C(=O)O` (H-[dY]LPGQYAFF-OH; N-terminus assumed): the half-life at 50 µg/mL in series [1] came to 135 ± 39 min.
YFPGQFAFG-OH: the half-life at 50 µg/mL in series [1] turned out to be 13 ± 1 min.
In the case of YFPGHFAFS-NH2, the “stability: t1/2 ±SD” value in series [1] (peptide half life in human serum (25% v/v in RPMI, 37°C), HPLC assay, mean of three independent experiments ± SD) was found to be 17 ± 4 min.
`CC(C)C[C@H](NC(=O)[C@@H](N)Cc1ccc(O)cc1)C(=O)N1CCC[C@H]1C(=O)NCC(=O)N[C@@H](CCC(N)=O)C(=O)N[C@@H](Cc1ccc(O)cc1)C(=O)N[C@@H](C)C(=O)N[C@@H](Cc1ccccc1)C(=O)N[C@H](CO)C(=O)O` (H-YLPGQYAF[dS]-OH; N-terminus assumed) gave a half-life at 50 µg/mL in series [1] of 22 ± 2 min.
`CC(C)C[C@H](NC(=O)[C@@H](N)Cc1ccc(O)cc1)C(=O)N1CCC[C@H]1C(=O)NCC(=O)N[C@@H](CCC(N)=O)C(=O)N[C@@H](Cc1ccc(O)cc1)C(=O)N[C@@H](C)C(=O)N[C@@H](Cc1ccccc1)C(=O)N[C@H](Cc1ccccc1)C(=O)O` (H-YLPGQYAF[dF]-OH) came in with a half-life in series [1] of 36 ± 4 min.
On to `C[C@H](NC(=O)[C@H](Cc1ccccc1)NC(=O)[C@H](CCC(N)=O)NC(=O)CNC(=O)[C@@H]1CCCN1C(=O)[C@@H](N)Cc1ccccc1)C(=O)N[C@@H](Cc1ccccc1)C(=O)N[C@H](CO)C(=O)N[C@H](CO)C(=O)O` [compound 105] (H-FPGQFAF[dS][dS]-OH; N-terminus assumed), for which the max response at human CMKLR1 (setting [2]) is listed as 1,81 DF/F0. For the same molecule, on human CMKLR1 (setting [3]), the EC50 stood at 611 nM.
Consider `CC(C)C[C@H](NC(=O)[C@H](N)Cc1ccc(O)cc1)C(=O)N1CCC[C@H]1C(=O)NCC(=O)N[C@@H](CCC(N)=O)C(=O)N[C@@H](Cc1ccc(O)cc1)C(=O)N[C@@H](C)C(=O)N[C@@H](Cc1ccccc1)C(=O)N[C@@H](CO)C(=O)O` (H-[dY]LPGQYAFS-OH), for which, in series [1], the half-life stood at 77 ± 5 min.
Turning to `CC(C)C[C@H](NC(=O)[C@H](Cc1ccc(O)cc1)NC(=O)[C@@H](Cc1ccccc1)NC(=O)[C@@H]1CCCN1C(=O)[C@H]1CCCN1C(=O)[C@@H]1CCCN1C(=O)[C@H](CC(C)C)NC(=O)[C@@H](N)Cc1ccc(O)cc1)C(=O)N1CCC[C@H]1C(=O)O` [compound 152] (H-YLP[dP]P[dF]YLP-OH; N-terminus assumed), at human CMKLR1 (setting [2]), the max response is listed as 1,7 DF/F0. For the same molecule, the EC50 on human CMKLR1 (setting [3]) is 302 nM.
The matching figures for WYPGNFAFS-NH2 [compound 16]: 1,47 DF/F0 and 3840 nM.
The matching figures for YFPGQWAWS-NH2 [compound 9]: 1,61 DF/F0 and 1880 nM.
In the case of YFPGHFAFS-NH2 [compound 7], on human CMKLR1 (setting [2]), the max response is given as 1,55 DF/F0.
Take `C[C@H](NC(=O)[C@@H](Cc1ccccc1)NC(=O)[C@H](CCC(N)=O)NC(=O)CNC(=O)[C@@H]1CCCN1C(=O)[C@@H](Cc1ccc(O)cc1)NC(=O)[C@H](N)Cc1ccc(O)cc1)C(=O)N[C@H](Cc1ccc(O)cc1)C(=O)N[C@H](CO)C(N)=O` [compound 8] (H-[dY][dY]PGQ[dF]A[dY][dS]-NH2; N-terminus assumed): the max response on human CMKLR1 (setting [2]) is on record as 1,31 DF/F0. Also, the EC50 on human CMKLR1 (setting [3]) came to 1880 nM.
In the case of `C[C@H](NC(=O)[C@H](CO)NC(=O)[C@H](Cc1ccccc1)NC(=O)[C@H](C)NC(=O)[C@H](Cc1ccccc1)NC(=O)[C@H](CCC(N)=O)NC(=O)[C@@H](N)Cc1ccccc1)C(=O)N[C@@H](Cc1ccccc1)C(=O)N[C@H](CO)C(=O)O` [compound 103] (H-FQFAFSAF[dS]-OH; N-terminus assumed), the max response on human CMKLR1 (setting [2]) is 1,76 DF/F0. Also, the half-maximal effective concentration (EC50) at human CMKLR1 (setting [3]) stood at 194 nM.
`NC(=O)CC[C@H](NC(=O)CNC(=O)[C@@H]1CCCN1C(=O)[C@H](Cc1ccccc1)NC(=O)[C@H](N)Cc1ccccc1)C(=O)N[C@@H](Cc1c[nH]c2ccccc12)C(=O)NCC(=O)N[C@@H](Cc1ccccc1)C(=O)N[C@@H](CO)C(N)=O` [compound 12] (H-[dF]FPGQWGFS-NH2; N-terminus assumed): on human CMKLR1 (setting [2]), the max response was 1,56 DF/F0. Further, at human CMKLR1 (setting [3]), the EC50 is 3010 nM.
With FLPGQFAFS-NH2 [compound 3], the max response on human CMKLR1 (setting [2]) is on record as 1,77 DF/F0. At human CMKLR1 (setting [3]), the half-maximal effective concentration (EC50) amounted to 41.3 nM.
`CC(C)C[C@H](NC(=O)[C@H](N)Cc1ccc(O)cc1)C(=O)N1CCC[C@H]1C(=O)N[C@H](CO)C(=O)N[C@@H](CCC(N)=O)C(=O)N[C@@H](Cc1ccc(O)cc1)C(=O)N[C@@H](C)C(=O)N[C@@H](Cc1ccccc1)C(=O)N[C@H](Cc1ccccc1)C(=O)O` [yLPsQYAFf] (H-[dY]LP[dS]QYAF[dF]-OH; N-terminus assumed): the EC50 at human CMKLR1 came to 0.49 ± 0.13 nM.
In turn, `C[C@@H](NC(=O)[C@H](Cc1ccccc1)NC(=O)[C@H](Cc1ccccc1)NC(=O)[C@@H](CO)NC(=O)[C@@H]1CCCN1C(=O)[C@@H](Cc1ccc(O)cc1)NC(=O)[C@H](N)Cc1ccc(O)cc1)C(=O)N[C@@H](Cc1ccccc1)C(=O)N1CCC[C@H]1C(=O)O` [compound 154] (H-[dY][dY]P[dS]FF[dA]FP-OH; N-terminus assumed) showed a half-life at 50 µg/mL in series [1] of 374 min.
In the case of `CC[C@H](C)[C@H](NC(=O)CNC(=O)[C@@H]1CCCN1C(=O)[C@H](Cc1ccccc1)NC(=O)[C@@H](N)Cc1ccc(O)cc1)C(=O)N[C@@H](Cc1ccccc1)C(=O)N[C@@H](C)C(=O)N[C@H](Cc1ccccc1)C(=O)N[C@@H](CO)C(N)=O` [compound 10] (H-YFPGIFA[dF]S-NH2; N-terminus assumed), at human CMKLR1 (setting [2]), the max response is on record as 1,48 DF/F0. For the same molecule, at human CMKLR1 (setting [3]), the EC50 was 2220 nM.
For `C[C@H](NC(=O)[C@H](Cc1ccc(O)cc1)NC(=O)[C@@H](CCC(N)=O)NC(=O)CNC(=O)[C@@H]1CCCN1C(=O)[C@@H](Cc1ccc(O)cc1)NC(=O)[C@@H](N)Cc1ccc(O)cc1)C(=O)N[C@@H](Cc1ccc(O)cc1)C(=O)N[C@@H](CO)C(N)=O` [compound 19] (H-Y[dY]PG[dQ]YAYS-NH2; N-terminus assumed), the max response on human CMKLR1 (setting [2]) is recorded as 0,42 DF/F0. The EC50 at human CMKLR1 (setting [3]) worked out at 9550 nM.
YFPGQYAFF-NH2 [compound 1]: on human CMKLR1 (setting [2]), the max response is recorded as 1,47 DF/F0. For the same molecule, the 50% effective concentration (EC50) at human CMKLR1 (setting [3]) stood at 15.2 nM.
Consider YYPGQYAYS-NH2 [compound 17], for which the max response on human CMKLR1 (setting [2]) is recorded as 1,09 DF/F0. On human CMKLR1 (setting [3]), the EC50 is 4360 nM.
`CC[C@@H](C)[C@@H](NC(=O)[C@H](Cc1ccccc1)NC(=O)[C@H](CCC(N)=O)NC(=O)CNC(=O)[C@@H]1CCCN1C(=O)[C@H](Cc1ccccc1)NC(=O)[C@H](N)Cc1c[nH]c2ccccc12)C(=O)N[C@@H](Cc1ccccc1)C(=O)N[C@@H](CO)C(N)=O` [compound 18] (H-[dW]FPGQF[dI]FS-NH2; N-terminus assumed): on human CMKLR1 (setting [2]), the max response is 1,40 DF/F0. Further, at human CMKLR1 (setting [3]), the concentration for a half-maximal effect (EC50) came out at 7130 nM.
Regarding `CC(C)C[C@H](NC(=O)[C@@H](N)Cc1ccccc1)C(=O)N1CCC[C@H]1C(=O)NCC(=O)N[C@@H](CCC(N)=O)C(=O)N[C@@H](Cc1ccccc1)C(=O)N[C@@H](C)C(=O)N[C@@H](Cc1ccccc1)C(=O)N1CCC[C@@H]1C(=O)O` [compound 110] (H-FLPGQFAF[dP]-OH; N-terminus assumed), the max response on human CMKLR1 (setting [2]) is listed as 1,59 DF/F0. In addition, the EC50 on human CMKLR1 (setting [3]) was determined as 1770 nM.
